{
  "source": "paper PMC12445744",
  "about": "“Molecular docking to homology models of human and Trypanosoma brucei ERK8 that identified ortholog-specific inhibitors” (PLOS Neglected Tropical Diseases, 2025)",
  "molecular_target": "T1, HsERK8 (Homo sapiens, UniProt Q8TD08)",
  "T1 construct": "plasmid pGEX2T expressing the full-length hERK8 coding region; made in house; host or cells: Escherichia coli Rosetta 2 (DE3)",
  "T1 sequence (Q8TD08 1-544)": "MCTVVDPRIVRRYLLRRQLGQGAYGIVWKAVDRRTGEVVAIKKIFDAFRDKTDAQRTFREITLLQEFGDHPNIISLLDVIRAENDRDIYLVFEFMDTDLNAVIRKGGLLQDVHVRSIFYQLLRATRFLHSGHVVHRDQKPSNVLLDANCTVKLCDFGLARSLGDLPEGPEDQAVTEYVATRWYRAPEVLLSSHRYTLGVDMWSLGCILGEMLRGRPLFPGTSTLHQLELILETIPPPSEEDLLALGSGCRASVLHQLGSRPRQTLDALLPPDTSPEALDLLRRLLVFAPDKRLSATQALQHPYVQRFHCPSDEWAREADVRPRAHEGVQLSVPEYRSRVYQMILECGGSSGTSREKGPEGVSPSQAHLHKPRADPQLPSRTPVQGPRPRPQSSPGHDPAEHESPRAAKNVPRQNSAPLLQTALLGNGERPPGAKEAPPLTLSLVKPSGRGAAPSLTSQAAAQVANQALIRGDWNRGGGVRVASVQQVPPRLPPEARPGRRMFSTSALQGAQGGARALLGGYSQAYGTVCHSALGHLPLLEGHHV",
  "test": "Luciferase-based kinase inhibition assay (ATP luminescence), GST-tagged HsERK8 with MBP substrate",
  "format": "biochemical",
  "settings": "for raw luminescence, HsERK8: replicate wells; for raw luminescence, HsERK8 / Luminescence Raw (Kinase-Glo): listed as Sil; for Luminescence Raw (Kinase-Glo): HsERK8",
  "note": "Several values for one entry are separate records, joined by “and”; a condition that tells them apart may be missing. Identical values can stand only once.",
  "data": [
    {"smiles": "CCCc1nn(C)c2c(=O)[nH]c(-c3cc(S(=O)(=O)N4CCN(C)CC4)ccc3OCC)nc12", "note": "[Sildenafil]", "values": [
      {"measurement": "raw luminescence, HsERK8", "setting": "0.00015 mM compound, sheet ADP_ATP_glo081724 (3)", "value": "2773.07 RLU and 2877.12 RLU and 2182.72 RLU"},
      {"measurement": "raw luminescence, HsERK8", "setting": "0.00015 mM compound, sheet Kinase_glo 08142024 (2)", "value": "6784.32 RLU and 6634.26 RLU and 5826.91 RLU"},
      {"measurement": "raw luminescence, HsERK8", "setting": "0.00015 mM compound, sheet Kinase_glo_080924_IFPS (2)", "value": "3800.03 RLU and 4341.28 RLU and 3728.16 RLU"},
      {"measurement": "raw luminescence, HsERK8", "setting": "0.00061 mM compound, sheet ADP_ATP_glo081724 (3)", "value": "3277.47 RLU and 3338.54 RLU and 3085.21 RLU"},
      {"measurement": "raw luminescence, HsERK8", "setting": "0.00061 mM compound, sheet Kinase_glo 08142024 (2)", "value": "5721.23 RLU and 5653.6 RLU and 3903.63 RLU"},
      {"measurement": "raw luminescence, HsERK8", "setting": "0.00061 mM compound, sheet Kinase_glo_080924_IFPS (2)", "value": "1396.94 RLU and 1477.79 RLU and 1381.21 RLU"},
      {"measurement": "raw luminescence, HsERK8", "setting": "0.00244 mM compound, sheet ADP_ATP_glo081724 (3)", "value": "3469.73 RLU and 3284.26 RLU and 2883.9 RLU"},
      {"measurement": "raw luminescence, HsERK8", "setting": "0.00244 mM compound, sheet Kinase_glo 08142024 (2)", "value": "7264.08 RLU and 7348.62 RLU and 5611.33 RLU"},
      {"measurement": "raw luminescence, HsERK8", "setting": "0.00244 mM compound, sheet Kinase_glo_080924_IFPS (2)", "value": "3130.75 RLU and 3411.49 RLU and 2899.43 RLU"},
      {"measurement": "raw luminescence, HsERK8", "setting": "0.00977 mM compound, sheet ADP_ATP_glo081724 (3)", "value": "2892.95 RLU and 2795.69 RLU and 2354.62 RLU"},
      {"measurement": "raw luminescence, HsERK8", "setting": "0.00977 mM compound, sheet Kinase_glo 08142024 (2)", "value": "7046.4 RLU and 7135.16 RLU and 5429.57 RLU"},
      {"measurement": "raw luminescence, HsERK8", "setting": "0.00977 mM compound, sheet Kinase_glo_080924_IFPS (2)", "value": "3247.54 RLU and 3584.42 RLU and 3180.16 RLU"},
      {"measurement": "raw luminescence, HsERK8", "setting": "0.03906 mM compound, sheet ADP_ATP_glo081724 (3)", "value": "3397.35 RLU and 3566.99 RLU and 3141.76 RLU"},
      {"measurement": "raw luminescence, HsERK8", "setting": "0.03906 mM compound, sheet Kinase_glo 08142024 (2)", "value": "6515.91 RLU and 6714.58 RLU and 5167.5 RLU"},
      {"measurement": "raw luminescence, HsERK8", "setting": "0.03906 mM compound, sheet Kinase_glo_080924_IFPS (2)", "value": "3400.26 RLU and 3463.14 RLU and 3305.93 RLU"},
      {"measurement": "IC50", "setting": "50 μM ATP, 30 min 30°C, triplicate, n/d = no detectible inhibition, read-out: HsERK8 IC50", "value": 8, "unit": "mM"},
      {"measurement": "raw luminescence, HsERK8", "setting": "0.15625 mM compound, sheet ADP_ATP_glo081724 (3)", "value": "3281.99 RLU and 3150.8 RLU and 2531.05 RLU"},
      {"measurement": "raw luminescence, HsERK8", "setting": "0.15625 mM compound, sheet Kinase_glo 08142024 (2)", "value": "6655.4 RLU and 6579.31 RLU and 5562.72 RLU"},
      {"measurement": "raw luminescence, HsERK8", "setting": "0.15625 mM compound, sheet Kinase_glo_080924_IFPS (2)", "value": "3817.99 RLU and 4080.76 RLU and 3636.08 RLU"},
      {"measurement": "raw luminescence, HsERK8", "setting": "0.62500 mM compound, sheet ADP_ATP_glo081724 (3)", "value": "3474.25 RLU and 3356.64 RLU and 2585.33 RLU"},
      {"measurement": "raw luminescence, HsERK8", "setting": "0.62500 mM compound, sheet Kinase_glo 08142024 (2)", "value": "8487.8 RLU and 8306.04 RLU and 6687.1 RLU"},
      {"measurement": "raw luminescence, HsERK8", "setting": "0.62500 mM compound, sheet Kinase_glo_080924_IFPS (2)", "value": "5547.32 RLU and 5693.3 RLU and 4916.23 RLU"},
      {"measurement": "raw luminescence, HsERK8", "setting": "2.50000 mM compound, sheet ADP_ATP_glo081724 (3)", "value": "11748.2 RLU and 11610.3 RLU and 8563.49 RLU"},
      {"measurement": "raw luminescence, HsERK8", "setting": "2.50000 mM compound, sheet Kinase_glo 08142024 (2)", "value": "29728.4 RLU and 30364.6 RLU and 22572.1 RLU"},
      {"measurement": "raw luminescence, HsERK8", "setting": "2.50000 mM compound, sheet Kinase_glo_080924_IFPS (2)", "value": "13814.9 RLU and 12641.6 RLU and 13534.9 RLU"},
      {"measurement": "raw luminescence, HsERK8", "setting": "10.00000 mM compound, sheet ADP_ATP_glo081724 (3)", "value": "18796.3 RLU and 18852.8 RLU and 18760.1 RLU"},
      {"measurement": "raw luminescence, HsERK8", "setting": "10.00000 mM compound, sheet Kinase_glo 08142024 (2)", "value": "37233.5 RLU and 36922.8 RLU and 36986.2 RLU"},
      {"measurement": "raw luminescence, HsERK8", "setting": "10.00000 mM compound, sheet Kinase_glo_080924_IFPS (2), signal = ATP left", "value": "19808.3 RLU and 19442.1 RLU and 19894.1 RLU"},
      {"measurement": "Luminescence Raw (Kinase-Glo)", "setting": "inhibitor 0.00976562 mM, sheet Sil_Pred3, read 3", "value": "76824 and 76849.7 and 75718.2"},
      {"measurement": "Luminescence Raw (Kinase-Glo)", "setting": "inhibitor 0.0195312 mM, sheet Sil_Pred3, read 3", "value": "84913.3 and 83327.3 and 84201.1"},
      {"measurement": "Luminescence Raw (Kinase-Glo)", "setting": "inhibitor 0.0390625 mM, sheet Sil_Pred3, read 3", "value": "86810.9 and 87656.6 and 88003.3"},
      {"measurement": "Luminescence Raw (Kinase-Glo)", "setting": "inhibitor 0.078125 mM, sheet Sil_Pred3, read 3", "value": "83688.1 and 81764.7 and 82605.8"},
      {"measurement": "Luminescence Raw (Kinase-Glo)", "setting": "inhibitor 0.15625 mM, sheet Sil_Pred3, read 3", "value": "84571.3 and 87872.1 and 86433.7"},
      {"measurement": "Luminescence Raw (Kinase-Glo)", "setting": "inhibitor 0.3125 mM, sheet Sil_Pred3, read 3", "value": "80438.8 and 81286.8 and 83022.8"},
      {"measurement": "Luminescence Raw (Kinase-Glo)", "setting": "inhibitor 0.625 mM, sheet Sil_Pred3, read 3", "value": "81408.6 and 81148.6 and 80450.5"},
      {"measurement": "Luminescence Raw (Kinase-Glo)", "setting": "inhibitor 0.00976562, sheet Sil_Pred1, read 1", "value": "87353.2 and 86988.7 and 86809.9"},
      {"measurement": "Luminescence Raw (Kinase-Glo)", "setting": "inhibitor 0.00976562, sheet Sil_Pred2, read 2", "value": "79598.9 and 79331.5 and 78826.8"},
      {"measurement": "Luminescence Raw (Kinase-Glo)", "setting": "inhibitor 0.0195312, sheet Sil_Pred1, read 1", "value": "97908.4 and 96150.4 and 96258.1"},
      {"measurement": "Luminescence Raw (Kinase-Glo)", "setting": "inhibitor 0.0195312, sheet Sil_Pred2, read 2", "value": "87627.4 and 86394.8 and 87122.7"},
      {"measurement": "Luminescence Raw (Kinase-Glo)", "setting": "inhibitor 0.0390625, sheet Sil_Pred1, read 1", "value": "100125 and 101023 and 101243"},
      {"measurement": "Luminescence Raw (Kinase-Glo)", "setting": "inhibitor 0.0390625, sheet Sil_Pred2, read 2", "value": "89720.6 and 90218.3 and 91030"},
      {"measurement": "Luminescence Raw (Kinase-Glo)", "setting": "inhibitor 0.078125, sheet Sil_Pred1, read 1", "value": "96870.1 and 94163.1 and 94380.9"},
      {"measurement": "Luminescence Raw (Kinase-Glo)", "setting": "inhibitor 0.078125, sheet Sil_Pred2, read 2", "value": "86171.5 and 85045.8 and 85399.3"},
      {"measurement": "Luminescence Raw (Kinase-Glo)", "setting": "inhibitor 0.15625, sheet Sil_Pred1, read 1", "value": "97571.5 and 101844 and 101823"},
      {"measurement": "Luminescence Raw (Kinase-Glo)", "setting": "inhibitor 0.15625, sheet Sil_Pred2, read 2", "value": "87601.8 and 91464.9 and 91334.7"},
      {"measurement": "Luminescence Raw (Kinase-Glo)", "setting": "inhibitor 0.3125, sheet Sil_Pred1, read 1", "value": "91875.5 and 94802.6 and 96700.5"},
      {"measurement": "Luminescence Raw (Kinase-Glo)", "setting": "inhibitor 0.3125, sheet Sil_Pred2, read 2", "value": "83203.8 and 85106.3 and 85450.5"},
      {"measurement": "Luminescence Raw (Kinase-Glo)", "setting": "inhibitor 0.625 (mM per sheet Pred3), sheet Kinase-Glo802124_Sil_Pred1, read 1, triplicate wells", "value": "95077.7 and 94021 and 92790.1"},
      {"measurement": "Luminescence Raw (Kinase-Glo)", "setting": "inhibitor 0.625, sheet Sil_Pred2, read 2", "value": "85048.1 and 84027.1 and 84180.6"}
    ]}
  ]
}
